Assay [1] concerns the target T1, Lactoylglutathione lyase (Homo sapiens, UniProt Q04760). In words: Inhibition of recombinant human His-tagged glyoxalase 1 expressed in Escherichia coli BL21 assessed as formation of S-D-lactoylglutathione after 5 mins by spectrophotometric method.
Target sequence in this assay (Q04760 whole entry): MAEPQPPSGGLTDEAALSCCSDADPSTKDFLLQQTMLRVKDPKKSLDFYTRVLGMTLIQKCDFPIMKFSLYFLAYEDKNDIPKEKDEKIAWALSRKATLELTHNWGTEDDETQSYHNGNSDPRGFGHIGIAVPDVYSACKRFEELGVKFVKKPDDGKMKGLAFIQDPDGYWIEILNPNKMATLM
Assay [2] addresses T1, Lactoylglutathione lyase. Kind of assay: Inhibition of human recombinant His-tagged glyoxalase 1 expressed in Escherichia coli BL21 assessed as formation of S-D-lactoylglutathione at 100 uM after 5 mins by spectrophotometric method.
Target sequence in this assay (Q04760 2-184 limits assumed): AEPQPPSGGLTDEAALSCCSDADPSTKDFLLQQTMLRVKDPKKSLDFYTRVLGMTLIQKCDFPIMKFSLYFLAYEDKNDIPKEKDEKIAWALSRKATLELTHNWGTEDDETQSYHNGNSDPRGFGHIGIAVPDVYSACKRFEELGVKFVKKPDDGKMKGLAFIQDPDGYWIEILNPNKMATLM
Assay [3] has as its system HL-60. Kind of assay: Antiproliferative activity against human HL60 cells at 300 uM. The format is functional, cell-based.
The subject of assay [4] is HL-60. In words: induction of apoptosis in human HL60 cells at 300 uM. The format is functional, cell-based.

The structures appear in SMILES notation. Activity calls are given as the source filed them. The rule behind the calls is not given here.

With `COc1ccc(C(=O)Nc2sc3c(c2C(=O)O)CCCC3)cc1`, the IC50 at Lactoylglutathione lyase [1] worked out at 54.6 µM. The inhibition result on Lactoylglutathione lyase [2] was “Active”.
For `COc1ccc(/C=C(/CC(=O)O)c2nc3ccccc3s2)cc1`, the outcome in the assay on HL-60 [3] and with HL-60 [4] was Active. Moreover, the IC50 at Lactoylglutathione lyase [1] came out at 2 µM. Besides, at Lactoylglutathione lyase [2], the inhibition entry was “Active”.
As to `COc1ccc(C(=O)Nc2ccccc2C(=O)O)cc1`, the IC50 on Lactoylglutathione lyase [1] came out at 93.2 µM. Also, the inhibition result on Lactoylglutathione lyase [2] was “Active”.

Usually IC50 stands for the point on the concentration scale where inhibition reaches its midpoint.
